Experimental data taken from the supplement of paper PMC11061612.

Tests used:
Test in all cases: combination Emax (second highest fraction inhibited in the dose matrix, 72 h); higher = more inhibition; extreme values may be limits of the assay
[1] = system: A549 (Lung Adenocarcinoma)
In short: (§1)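 After 24 hours at 37°C and 5% CO2 in 1536-well plates, cells in DMEM/F12 or RPMI plus 10% FBS received two-drug dose matrices for 72 hours. Viability came from CellTiter-Glo 2.0 luminescence and was scaled as inhibition, anchored at 0 by vehicle wells and at 1 by blank wells. Combination Emax is taken as the second-highest inhibition in the matrix, and Bliss excess as the observed combination effect less EA + EB − EA·EB, with EA and EB the single-agent effects.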

[2] = system: BICR22 (Oral Cavity Carcinoma)
In short: as §1

[3] = system: CAPAN-2 (Pancreatic Carcinoma)
In short: as §1

[4] = system: CAS-1 (Glioblastoma)
In short: as §1

[5] = system: COLO-320-HSR (Colorectal Carcinoma)
In short: as §1

[6] = system: COR-L311 (Small Cell Lung Carcinoma)
In short: as §1

[7] = system: ECC10 (Gastric Carcinoma)
In short: as §1

[8] = system: FU97 (Gastric Carcinoma)
In short: as §1

[9] = system: HCC1954 (Breast Carcinoma)
In short: as §1

[10] = system: KARPAS-422 (B-Cell Non-Hodgkin's Lymphoma)
In short: as §1

[11] = system: LN-405 (Glioblastoma)
In short: as §1

[12] = system: NCI-H1650 (Lung Adenocarcinoma)
In short: as §1

[13] = system: NCI-H2066 (Squamous Cell Lung Carcinoma)
In short: as §1

[14] = system: NCI-H64 (Small Cell Lung Carcinoma)
In short: as §1

[15] = system: ONS-76 (Other Solid Carcinomas)
In short: as §1

[16] = system: OS-RC-2 (Kidney Carcinoma)
In short: as §1

[17] = system: PA-1 (Ovarian Carcinoma)
In short: as §1

[18] = system: SK-MES-1 (Squamous Cell Lung Carcinoma)
In short: as §1

[19] = system: TT2609-C02 (Thyroid Gland Carcinoma)
In short: as §1

[20] = system: U-2-OS (Osteosarcoma)
In short: as §1

Row | SMILES | combination Emax [1] | combination Emax [2] | combination Emax [3] | combination Emax [4] | combination Emax [5] | combination Emax [6] | combination Emax [7] | combination Emax [8] | combination Emax [9] | combination Emax [10] | combination Emax [11] | combination Emax [12] | combination Emax [13] | combination Emax [14] | combination Emax [15] | combination Emax [16] | combination Emax [17] | combination Emax [18] | combination Emax [19] | combination Emax [20]
1 | NC1(C(=O)N[C@@H](CCO)c2ccc(Cl)cc2)CCN(c2ncnc3[nH]ccc23)CC1 [Capivasertib] + Cn1cnc2c(F)c(Nc3ccc(Br)cc3Cl)c(C(=O)NOCCO)cc21 [Selumetinib] (first compound max 10 µM, 7x7, partner max 10 µM) | 0.922 | 0.949 | 0.504 | 0.682 | 0.214 | 0.625 | 0.506 | 0.397 | 0.805 | 0.58 | 0.539 | 0.358 | 0.685 | 0.321 | 0.873 | 0.439 | 0.884 | 0.768 | 0.542 | 0.892
2 | Cc1nc(Nc2ncc(C(=O)Nc3c(C)cccc3Cl)s2)cc(N2CCN(CCO)CC2)n1 [Dasatinib] + CC(=O)Nc1cccc(-n2c(=O)n(C3CC3)c(=O)c3c(Nc4ccc(I)cc4F)n(C)c(=O)c(C)c32)c1 [Trametinib] (first compound max 2 µM, 7x7, partner max 1 µM) | 0.97 | 0.615 | 0.892 | 0.946 | 0.15 | 0.0652 | 0.856 | 0.422 | 0.279 | 0.469 | 0.468 | 0.419 | 0.402 | 0.185 | 0.888 | 0.353 | 0.936 | 0.941 | 0.748 | 0.9
3 | COc1cccc2c1C(=O)c1c(O)c3c(c(O)c1C2=O)C[C@@](O)(C(=O)CO)C[C@@H]3O[C@H]1C[C@H](N)[C@H](O)[C@H](C)O1 [Doxorubicin] + Cc1cc2ncnn2cc1Nc1ncc2c(n1)n(C1CCOCC1)c(=O)n2C [AZD7648] (first compound max 1 µM, 7x7, partner max 10 µM) | 0.906 | 0.945 | 0.197 | 0.775 | 0.464 | 0.87 | 1 | 0.59 | 0.729 | 0.954 | 0.335 | 0.591 | 0.262 | 0.606 | 0.935 | 0.348 | 0.892 | 0.686 | 0.414 | 0.55
4 | COc1cc2ncnc(Nc3ccc(F)c(Cl)c3)c2cc1OCCCN1CCOCC1 [Gefitinib] + CC(C)n1c(=O)n(C)c2cnc3cc(F)c(-c4ccc(OCCCN5CCCCC5)nc4)cc3c21 [AZD1390] (first compound max 10 µM, 7x7, partner max 0.3 µM) | 0.435 | 0.272 | 0.148 | 0.134 | 0.19 | 0.0812 | 0.12 | 0.149 | 0.267 | 0.128 | 0.104 | 0.236 | 0.384 | 0.152 | 0.11 | 0.145 | 0.351 | 0.408 | 0.0663 | 0.0294
5 | CS(=O)(=O)CCNCc1ccc(-c2ccc3ncnc(Nc4ccc(OCc5cccc(F)c5)c(Cl)c4)c3c2)o1 [Lapatinib] + C[C@@H](Oc1cc(-c2cnn(C3CCNCC3)c2)cnc1N)c1c(Cl)ccc(F)c1Cl [Crizotinib] (first compound max 10 µM, 7x7, partner max 10 µM) | 0.988 | 0.933 | 0.741 | 0.962 | 0.894 | 0.924 | 0.97 | 0.81 | 0.91 | 0.96 | 0.493 | 0.799 | 0.58 | 0.823 | 0.73 | 0.584 | 1 | 0.966 | 0.476 | 0.486
6 | CC(=O)c1c(C)c2cnc(Nc3ccc(N4CCNCC4)cn3)nc2n(C2CCCC2)c1=O [Palbociclib] + CC1(C)CCC(CN2CCN(c3ccc(C(=O)NS(=O)(=O)c4ccc(NCC5CCOCC5)c([N+](=O)[O-])c4)c(Oc4cnc5[nH]ccc5c4)c3)CC2)=C(c2ccc(Cl)cc2)C1 [Venetoclax] (first compound max 10 µM, 7x7, partner max 1 µM) | 0.64 | 0.209 | 0.0393 | 0.274 | 0.15 | 0.632 | 0.915 | 0.161 | 0 | 0.964 | 0.17 | 0.131 | 0.184 | 0.17 | 0.364 | 0.155 | 0.779 | 0.208 | 0.275 | 0.142
7 | CC(=O)c1c(C)c2cnc(Nc3ccc(N4CCNCC4)cn3)nc2n(C2CCCC2)c1=O [Palbociclib] + Cc1c2c(nn1C)CSCc1cc(n(C)n1)CSc1cc(c3ccccc3c1)OCCCc1c(C(=O)O)n(C)c3c-2c(Cl)ccc13 [AZD5991] (first compound max 10 µM, 7x7, partner max 1 µM) | 0.64 | 0.176 | 0.139 | 0.32 | 0.965 | 0.534 | 0.911 | 0.222 | 0.712 | 0.966 | 0.208 | 0.195 | 0.198 | 0.213 | 0.357 | 0.232 | 0.872 | 0.266 | 0.275 | 0.274
8 | CC(=O)c1c(C)c2cnc(Nc3ccc(N4CCNCC4)cn3)nc2n(C2CCCC2)c1=O [Palbociclib] + Cn1cnc2c(F)c(Nc3ccc(Br)cc3Cl)c(C(=O)NOCCO)cc21 [Selumetinib] (first compound max 10 µM, 7x7, partner max 10 µM) | 0.764 | 0.477 | 0.356 | 0.289 | 0.177 | 0.231 | 0.539 | 0.377 | 0.178 | 0.81 | 0.103 | 0.15 | 0.244 | 0.19 | 0.734 | 0.235 | 0.827 | 0.645 | 0.527 | 0.601
9 | COc1cccc(OCCCN)c1-c1cc(Nc2cnc(C#N)cn2)n[nH]1 [Prexasertib] + C=CCn1c(=O)c2cnc(Nc3ccc(N4CCN(C)CC4)cc3)nc2n1-c1cccc(C(C)(C)O)n1 [AZD1775] (first compound max 1 µM, partner max 1 µM) | 0.776 | 0.813 | 0.569 | 0.696 | 0.86 | 0.861 | 0.904 | 0.367 | 0.963 | 0.985 | 0.587 | 0.6 | 0.621 | 0.925 | 0.829 | 0.519 | 0.851 | 0.777 | 0.449 | 0.934
10 | COc1cccc(OCCCN)c1-c1cc(Nc2cnc(C#N)cn2)n[nH]1 [Prexasertib] + CCc1c2c(nc3ccc(O)cc13)-c1cc3c(c(=O)n1C2)COC(=O)[C@]3(O)CC [SN-38] (first compound max 1 µM, 7x7, partner max 0.3 µM) | 0.796 | 0.936 | 0.495 | 0.834 | 0.838 | 1 | 1 | 0.423 | 0.929 | 1 | 0.669 | 0.778 | 0.5 | 0.95 | 0.867 | 0.431 | 0.91 | 0.953 | 0.95 | 0.871
11 | COc1cccc(OCCCN)c1-c1cc(Nc2cnc(C#N)cn2)n[nH]1 [Prexasertib] + CN(C)CCCOc1ccc(-c2ccc3ncc4c(c3c2)n(C2CCOCC2)c(=O)n4C)cn1 [AZD0156] (first compound max 1 µM, 7x7, partner max 1 µM) | 0.536 | 0.742 | 0.592 | 0.674 | 0.691 | 0.77 | 0.671 | 0.386 | 0.862 | 0.904 | 0.516 | 0.51 | 0.402 | 0.787 | 0.862 | 0.498 | 0.725 | 0.77 | 0.335 | 0.943
12 | COc1cccc(OCCCN)c1-c1cc(Nc2cnc(C#N)cn2)n[nH]1 [Prexasertib] + C[C@@H]1COCCN1C2=NC(=NC(=C2)C3(CC3)[S@](=N)(=O)C)C4=C5C=CNC5=NC=C4 [AZD6738] (first compound max 1 µM, 7x7, partner max 10 µM) | 0.864 | 0.789 | 0.513 | 0.652 | 0.726 | 0.771 | 0.712 | 0.308 | 0.878 | 0.88 | 0.553 | 0.519 | 0.454 | 0.835 | 0.903 | 0.483 | 0.778 | 0.842 | 0.263 | 0.894
13 | COc1cccc(OCCCN)c1-c1cc(Nc2cnc(C#N)cn2)n[nH]1 [Prexasertib] + Cc1cc2ncnn2cc1Nc1ncc2c(n1)n(C1CCOCC1)c(=O)n2C [AZD7648] (first compound max 1 µM, 7x7, partner max 10 µM) | 0.63 | 0.761 | 0.593 | 0.71 | 0.669 | 0.789 | 0.671 | 0.367 | 0.843 | 0.908 | 0.445 | 0.55 | 0.437 | 0.846 | 0.862 | 0.469 | 0.734 | 0.804 | 0.276 | 0.913
